Measured values taken from ChEMBL document CHEMBL4359811, “Development of Potent and Selective Pyrazolopyrimidine IRAK4 Inhibitors” (J Med Chem, 2019).
In brackets after ≈: the same amount, converted by molar mass.

What was measured:
[1] = Kinetic aqueous solubility of the compound in PBS buffer at pH 7.4 incubated for 24 hrs under shaking condition by LC-CLND assay; type: physicochemical; conditions: PBS buffer, pH 7.4; read-out: Kinetic_solubility
[2] = Apparent permeability from apical to basolateral side in MDCK cells at 10 uM incubated for 180 mins and measured up to 180 min by LC-MS/MS analysis; type: ADME, cell-based, Canis lupus familiaris; conditions: dog
[3] = Cmax in mouse at 5 mg/kg, po; type: ADME, organism-based; parameters: dose 5 mg/kg, route oral; conditions: in vivo, read-out: Cmax
[4] = Cmax in mouse at 10 mg/kg, po; type: ADME, organism-based; parameters: dose 10 mg/kg, route oral; conditions: in vivo
[5] = Cmax in mouse at 30 mg/kg, po; type: ADME, organism-based; parameters: dose 30 mg/kg, route oral; conditions: in vivo
[6] = Cmax in mouse at 100 mg/kg, po administered as suspension in MCT; type: ADME, organism-based; parameters: dose 100 mg/kg, route oral; conditions: in vivo
[7] = AUC (infinity) in mouse at 5 mg/kg, po; type: ADME, organism-based; parameters: dose 5 mg/kg, route oral, time infinity; conditions: in vivo
[8] = AUC (infinity) in mouse at 10 mg/kg, po; type: ADME, organism-based; parameters: dose 10 mg/kg, route oral, time infinity; conditions: in vivo
[9] = AUC (infinity) in mouse at 30 mg/kg, po; type: ADME, organism-based; parameters: dose 30 mg/kg, time infinity, route oral; conditions: in vivo
[10] = AUC (infinity) in mouse at 100 mg/kg, po administered as suspension in MCT; type: ADME, organism-based; parameters: dose 100 mg/kg, time infinity, route oral; conditions: in vivo
[11] = Oral bioavailability in mouse at 5 mg/kg; type: ADME, organism-based; conditions: in vivo
[12] = Oral bioavailability in mouse at 100 mg/kg administered as suspension in MCT; type: ADME, organism-based; conditions: in vivo
[13] = Plasma clearance in mouse at 1 mg/kg, iv; type: ADME, organism-based
[14] = Oral bioavailability in monkey at 1 mg/kg; type: ADME, organism-based, Macaca mulatta; conditions: rhesus monkey, in vivo
[15] = Half-life in rat at 1 mg/kg, po; type: ADME, organism-based; conditions: in vivo
[16] = Half-life in dog at 1 mg/kg, po; type: ADME, organism-based, Canis lupus familiaris; conditions: in vivo
[17] = Cmax in mouse at 300 mg/kg, po administered as suspension in MCT; type: ADME, organism-based; parameters: dose 300 mg/kg, route oral; conditions: in vivo
[18] = Cmax in mouse at 300 mg/kg, po administered as suspension in 10% captisol; type: ADME, organism-based; parameters: dose 300 mg/kg, route oral; conditions: in vivo
[19] = AUC (infinity) in mouse at 100 mg/kg, po administered as suspension in 10% captisol; type: ADME, organism-based; parameters: dose 100 mg/kg, route oral, time infinity; conditions: in vivo
[20] = AUC (infinity) in mouse at 300 mg/kg, po administered as suspension in MCT; type: ADME, organism-based; parameters: dose 300 mg/kg, route oral, time infinity; conditions: in vivo
[21] = AUC (infinity) in mouse at 300 mg/kg, po administered as suspension in 10% captisol; type: ADME, organism-based; parameters: dose 300 mg/kg, route oral, time infinity; conditions: in vivo
[22] = Oral bioavailability in mouse at 300 mg/kg administered as suspension in MCT; type: ADME, organism-based; conditions: in vivo
[23] = Oral bioavailability in mouse at 300 mg/kg administered as suspension in 10% captisol; type: ADME, organism-based; conditions: in vivo
[24] = Half-life in mouse at 5 mg/kg, po; type: ADME, organism-based; conditions: in vivo
[25] = Half-life in mouse at 30 mg/kg, po; type: ADME, organism-based; conditions: in vivo
[26] = Half-life in mouse at 100 mg/kg, po administered as suspension in MCT; type: ADME, organism-based; conditions: in vivo
[27] = Half-life in mouse at 100 mg/kg, po administered as suspension in 10% captisol; type: ADME, organism-based; conditions: in vivo
[28] = Protein binding in rat plasma at 5 uM incubated for 4 hrs by LC-MS/MS analysis; type: ADME, cell-free; conditions: read-out: PPB (converted)
[29] = Protein binding in dog plasma at 5 uM incubated for 4 hrs by LC-MS/MS analysis; type: ADME, cell-free, Canis lupus familiaris; conditions: read-out: PPB (converted)
[30] = Protein binding in monkey plasma at 5 uM incubated for 4 hrs by LC-MS/MS analysis; type: ADME, cell-free, Macaca mulatta; conditions: rhesus monkey, read-out: PPB (converted)
[31] = Plasma clearance in monkey at 1 mg/kg, iv; type: ADME, organism-based, Macaca mulatta; conditions: rhesus monkey
[32] = Plasma clearance in dog at 0.3 mg/kg, iv; type: ADME, organism-based, Canis lupus familiaris
[33] = Volume of distribution at steady state in rat at 1 mg/kg, iv; type: ADME, organism-based; conditions: in vivo, read-out: Vdss
[34] = Volume of distribution at steady state in dog at 0.3 mg/kg, iv; type: ADME, organism-based, Canis lupus familiaris; conditions: in vivo, read-out: Vdss
[35] = Cmax in monkey at 1 mg/kg, po; type: ADME, organism-based, Macaca mulatta; parameters: dose 1 mg/kg, route oral; conditions: rhesus monkey, in vivo
[36] = Cmax in dog at 1 mg/kg, po; type: ADME, organism-based, Canis lupus familiaris; parameters: dose 1 mg/kg, route oral; conditions: in vivo
[37] = AUC (infinity) in dog at 1 mg/kg, po; type: ADME, organism-based, Canis lupus familiaris; parameters: dose 1 mg/kg, time infinity, route oral; conditions: in vivo
[38] = AUC (infinity) in monkey at 1 mg/kg, po; type: ADME, organism-based, Macaca mulatta; parameters: dose 1 mg/kg, time infinity, route oral; conditions: rhesus monkey, in vivo
[39] = Oral bioavailability in dog at 1 mg/kg; type: ADME, organism-based, Canis lupus familiaris; conditions: in vivo
Mus musculus [40] = experiment: In vivo inhibition of IRAK4 in CpG ODN 1826 induced C57BL/6 mouse assessed as blockade of TLR9 signalling by measuring IL-6 levels at 3 mg/kg, po treated 1 hr prior to CpG ODN 1826 stimulation and measured after 1 hr by MSD assay; type: functional; parameters: scale not given: the % may be the effect or the level left
Mus musculus [41] = experiment: In vivo inhibition of IRAK4 in CpG ODN 1826 induced C57BL/6 mouse assessed as blockade of TLR9 signalling by measuring IL-6 levels at 10 mg/kg, po treated 1 hr prior to CpG ODN 1826 stimulation and measured after 1 hr by MSD assay; type: functional; parameters: scale not given: the % may be the effect or the level left
Mus musculus [42] = experiment: In vivo inhibition of IRAK4 in CpG ODN 1826 induced C57BL/6 mouse assessed as blockade of TLR9 signalling by measuring IL-6 levels at 30 mg/kg, po treated 1 hr prior to CpG ODN 1826 stimulation and measured after 1 hr by MSD assay; type: functional; parameters: scale not given: the % may be the effect or the level left
Mus musculus [43] = experiment: In vivo inhibition of IRAK4 in CpG ODN 1826 induced C57BL/6 mouse assessed as blockade of TLR9 signalling by measuring IL-6 levels at 100 mg/kg, po treated 1 hr prior to CpG ODN 1826 stimulation and measured after 1 hr by MSD assay; type: functional; parameters: scale not given: the % may be the effect or the level left
Mus musculus [44] = experiment: In vivo inhibition of IRAK4 in CpG ODN 1826 induced C57BL/6 mouse assessed as blockade of TLR9 signalling by measuring TNFalpha levels at 1 mg/kg, po treated 1 hr prior to CpG ODN 1826 stimulation and measured after 1 hr by MSD assay; type: functional; parameters: scale not given: the % may be the effect or the level left
Mus musculus [45] = experiment: In vivo inhibition of IRAK4 in CpG ODN 1826 induced C57BL/6 mouse assessed as blockade of TLR9 signalling by measuring TNFalpha levels at 10 mg/kg, po treated 1 hr prior to CpG ODN 1826 stimulation and measured after 1 hr by MSD assay; type: functional; parameters: scale not given: the % may be the effect or the level left
Mus musculus [46] = experiment: In vivo inhibition of IRAK4 in CpG ODN 1826 induced C57BL/6 mouse assessed as blockade of TLR9 signalling by measuring TNFalpha levels at 30 mg/kg, po treated 1 hr prior to CpG ODN 1826 stimulation and measured after 1 hr by MSD assay; type: functional; parameters: scale not given: the % may be the effect or the level left
[47] = Drug concentration in CpG ODN 1826 induced C57BL/6 mouse plasma at 1 to 100 mg/kg, po treated 1 hr prior to CpG ODN 1826 stimulation and measured after 1 hr by MSD assay; type: ADME, organism-based; conditions: in vivo
[48] = Half-life in mouse at 300 mg/kg, po administered as suspension in MCT; type: ADME, organism-based; conditions: in vivo

C[C@]1(CO)Cc2cc(NC(=O)c3cnn4cccnc34)c(N3CCOCC3)cc2O1
solubility kinetic at 24 h [1]: 10 µM (≈ 4.09 µg/mL) | Papp A→B at 3 h, 10 µM [2]: 15 ×10⁻⁶ cm/s | Cmax [3]: 2.1 µM | Cmax [4]: 5.4 µM | Cmax [5]: 7.2 µM | Cmax [6]: 4.8 µM | AUC(0-inf) [7]: 2.3 µM·h | AUC(0-inf) [8]: 10 µM·h | AUC(0-inf) [9]: 17 µM·h | AUC(0-inf) [10]: 15.1 µM·h | bioavailability [11]: 59% | bioavailability [12]: 19% | clearance [13]: 54 mL/min/kg | bioavailability [14]: 85% | half-life [15]: 3.8 h | half-life [16]: 1.7 h | Cmax [17]: 10 µM | Cmax [18]: 14 µM | AUC(0-inf) [19]: 98 µM·h | AUC(0-inf) [20]: 63 µM·h | AUC(0-inf) [21]: 340 µM·h | bioavailability [22]: 22% | bioavailability [23]: 33% | half-life [24]: 0.5 h | half-life [25]: 1.3 h | half-life [26]: 1.6 h | half-life [27]: 3.3 h | fraction unbound at 4 h, 5 µM [28]: 0.21 | fraction unbound at 4 h, 5 µM [29]: 0.34 | fraction unbound at 4 h, 5 µM [30]: 0.49 | clearance [31]: 11 mL/min/kg | clearance [32]: 9.3 mL/min/kg | Vd [33]: 2.3 L/kg | Vd [34]: 8 L/kg | Cmax [35]: 0.3 µM | Cmax [36]: 0.2 µM | AUC(0-inf) [37]: 1.4 µM·h | AUC(0-inf) [38]: 3.3 µM·h | bioavailability [39]: 30% | Activity (Mus musculus [40]): -27% | Activity (Mus musculus [41]): -69% | Activity (Mus musculus [42]): -78% | Activity (Mus musculus [43]): -91% | Activity (Mus musculus [44]): 3% | Activity (Mus musculus [45]): -39% | Activity (Mus musculus [46]): -79% | Drug uptake [47]: Active | half-life [48]: 23.2 h
